Experimental data published in publication PMC8901119 (Chemical Science, 2021).
Where two headings read alike, the source gives them in different places. Starred links: 1 amine or outer side, 2 acyl side, 3 side chain; linkers in the order of their positions; H or OH if unused. Non-standard residues stand in square brackets, D forms with d. Residues, ends and D or L forms follow the SMILES beside them. Ala(7-MeO-coumarin-4-yl) = COc1ccc2c(C[C@H](N)C(=O)O)cc(=O)oc2c1; X1 = C[C@H](NC(=S)[C@H](CCCNC(=N)N)N[*:1])C(=O)[*:2]; X2 = C[C@H](NC(=S)[C@H](CCCCN)N[*:1])C(=O)[*:2]

Legend:
cathepsin L (Cts L) [1] = details: human, 27 °C, up to 2-hour
cathepsin S (Cts S) = details: 27 °C, up to 100 min
cathepsin B (Cts B) = details: human, 27 °C, up to 100 min
Cts L = Cts L (Homo sapiens, UniProt P07711); test: Cathepsin L inhibition assay with Z-FR-AMC
Chain of Cts L (P07711 114-333): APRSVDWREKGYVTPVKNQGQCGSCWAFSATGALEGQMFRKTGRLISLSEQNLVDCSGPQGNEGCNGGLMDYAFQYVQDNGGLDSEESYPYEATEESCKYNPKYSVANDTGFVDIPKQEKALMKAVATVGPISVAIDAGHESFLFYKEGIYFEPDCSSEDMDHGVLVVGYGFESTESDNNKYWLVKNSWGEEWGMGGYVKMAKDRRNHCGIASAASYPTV
Method: The peptide inhibitors were pre-incubated with the appropriate proteases in the assay buffer for 10 min to ensure full interactions prior being added to the fluorogenic substrates. The fluorescence of the reaction was monitored as a function of time at 460 nm with an excitation wavelength of 380 nm by a Tecan M1000 plate reader. Each assay was done in triplicates to ensure reproducibility.
Cathepsin L Inhibition Assay. For cathepsin L (Cts L, ≥ 0.5 units/mg protein, solution; from human liver), various concentrations of the substrate Z-FR-AMC (1 μM, 2 μM, 3 μM, 5 μM, 7
μM, 10 μM, 15 μM, and 20 μM) were reacted with 37.9 nM Cts L in a 96-well plate at 27 °C.
Assay buffer consisted of100 mM sodium acetate, 100 mM NaCl, 1 mM EDTA, and 5 mM DTT
with this KSP1 peptide were conducted in 12.3 mM Na2HPO4, 87.7 mM NaH2PO4, 100 mM NaCl,
5 mM DTT, 1 mM EDTA, pH 6.0 at 27 °C – the buffer condition used for this peptide construct
3 A stock solution of 220 μg/mL enzyme in 20 mM malonate, 1 mM EDTA, 400
mM NaCl, pH 5.5 was diluted with the assay buffer. Peptide (inhibitor) stock solutions were
prepared in a minimal amount of Milli-Q water then diluted to the desired concentrations with the
assay buffer. A 5 mM stock solution of the fluorogenic substrate Z-FR-AMC (Bachem; Torrance, CA, USA) was initially prepared in DMSO and diluted with assay buffer. The diluted solution of
Cts L was incubated in the assay buffer with or without the peptide inhibitor at room temperature
for 10 min. For each 50 μL reaction, 25 μL of this Cts L solution (either with or without the peptide inhibitor) was added to 25 μL diluted Z-FR-AMC substrate to initiate the reaction. The fluorescence of the reaction was monitored as a function of time at 460 nm with an excitation wavelength of 380 nm on the Tecan M1000 plate reader. Three independent trials were performed
for each assay to ensure reproducibility. For analysis, the fluorescence data was converted to rates
of proteolysis in terms of concentration (μM/min) by a conversion factor calculated from a linear
fit of the endpoint fluorescence at complete hydrolysis versus substrate concentration. The initial reaction rate was then calculated by extracting the slope of a linear fit of the first 2 min of the
progress curve (Figures S13-S19). These curves were fit to a Michaelis-Menten enzyme kinetic
Kinetics Analysis of the Peptide Inhibitors of Cathepsin L, V, K, B, and S
For Cts L, from initial evaluation of the kinetic parameters obtained from fitting to Michaelis-
data from Z-FR-AMC inhibition assays with Cts L was thus further fitted to a general Mixed
Inhibition Model in GraphPad Prism version 8.4.3 (GraphPad Software; La Jolla, CA), using
A mixed Inhibition Mechanism for Reversible Inhibitors. Abbreviations: E: enzymes;
S: substrate; I: inhibitor; P: product; EI: enzyme-inhibitor complex; ESI: enzyme-substrate-
inhibitor complex; KI: dissociation constant for the EI complex; αK I (also known as KI'):
dissociation constant for the ESI complex.
This general mixed-inhibition model uses a global fitting in which Vmax, KM, KI, constant α and are
shared. The constant α here determines the degree to which inhibitor binding changes the affinity
of the enzyme for substrate; the value of α is always greater than zero.5, 6 An α = 1 (K I = αKI)
complex (ES); the model then becomes identical to a noncompetitive inhibition model.5, 6 When α
> 1, the inhibitor binds preferentially to the free enzyme (E); if α = ∞, the inhibitor binds almost
exclusively the free enzyme and this model becomes identical to competitive inhibition.5, 6 If 0 <α

cathepsin L (Cts L) [2] = details: human, 27 °C, up to 100 min
cathepsin K (Cts K) = details: 27 °C, up to 100 min
cathepsin V (Cts V) = details: 27 °C, up to 100 min
[3] = Stability of peptides in HepG2 whole cell lysate; assay type: in vitro ADME; details: human
Method: Stability of Peptides in HepG2 Whole Cell Lysate
Using the same conditions as the previous Cts L Activity Assay in HepG2 Whole Cell Lysate, 50 μL peptide (either R1A or RS1A; final concentration 20 μM) was incubated in 50 μL HepG2 whole cell lysate (to a final concentration of 0.05 mg/mL) in the assay buffer for different time points.
The all-amide peptide, R 1A, was incubated for t = 0, 5, 10, 15, 20, and 30 minutes. The thioamide peptide, RS1A, was incubated for t = 0, 2, 6, 8, 10, and 24 hours. After incubation for the desired amount of time, 100 μL methanol was added to the mixture and incubated at -20 °C for 10 minutes before spinning down at 13,000 rpm for 10 minutes. Then, 180 μL of each mixture was further diluted with 220 μL Milli-Q water to a total volume of 400 μL before adding 1 μL 0.42 mM coumarin internal standard for HPLC analysis. The coumarin internal standard was used to normalize the amount of intact peptide in each sample. A Phenomenex Luna® Omega 5 µm PS C18 100 Å analytical column was used to analyze all samples using the same gradient of 20-40 % B over 20 minutes (Solvent A: 0.1% TFA in Milli-Q water; Solvent B: 0.1% TFA in acetonitrile).
Representative HPLC spectra (325 nm) at different time points were also shown to confirm the stability of the peptides in HepG2 whole cell lysate (Figure S26 A & B). MALDI MS was used to confirm the mass from each fraction from the HPLC from experiment with the all-amide peptide (R 1A – expected [M+H]+ = 1133.51 m/z) and the thioamide peptide ( RS1A – expected [M+H]+ = 1149.48 m/z). To calculate the percent intact peptide for each sample, the average ratio of intact peptide to internal standard was compared to that ratio at t = 0. For each time point, the experiment

[4] = Cts L, mixed inhibition model fit, Z-FR-AMC, pH 5.5, 27 °C

For HLFR^SA, the not cleaved (cathepsin L (Cts L) [1]) was “remained intact after the 2-hour assay”.

For “μHLFRAAAμ (H-[Ala(7-MeO-coumarin-4-yl)]HLFRAAA[Ala(7-MeO-coumarin-4-yl)]-OH; SMILES COc1ccc2c(C[C@H](NC(=O)[C@H](C)NC(=O)[C@H](C)NC(=O)[C@H](C)NC(=O)[C@H](CCCNC(=N)N)NC(=O)[C@H](Cc3ccccc3)NC(=O)[C@H](CC(C)C)NC(=O)[C@H](Cc3c[nH]cn3)NC(=O)[C@@H](N)Cc3cc(=O)oc4cc(OC)ccc34)C(=O)O)cc(=O)oc2c1)”, the cleaved bond (cathepsin S (Cts S)) was “R-A” and the cleaved bond (cathepsin B (Cts B)) was “R-A”.

In the case of COc1ccc2c(C[C@H](NC(=O)[C@H](C)NC(=O)[C@H](C)NC(=O)[C@H](C)NC(=S)[C@H](CCCCN)NC(=O)[C@H](CC(C)C)NC(=O)[C@H](CC(C)C)NC(=O)[C@@H](N)Cc3cc(=O)oc4cc(OC)ccc34)C(=O)O)cc(=O)oc2c1 [K^SP1, μLLK^SAAAμ] (H-[Ala(7-MeO-coumarin-4-yl)]LL[X2]AA[Ala(7-MeO-coumarin-4-yl)]-OH; N-terminus and C-terminus assumed), the Ki (Cts L; Cts L (preliminary data), phosphate buffer pH 6.0, 27 °C, preliminary) is reported as 870 nM.

Compound COc1ccc2c(C[C@H](NC(=O)[C@H](C)NC(=O)[C@H](C)NC(=O)[C@H](C)NC(=S)[C@H](CCCNC(=N)N)NC(=O)[C@H](Cc3ccccc3)NC(=O)[C@H](CC(C)C)NC(=O)[C@H](Cc3c[nH]cn3)NC(=O)[C@@H](N)Cc3cc(=O)oc4cc(OC)ccc34)C(=O)O)cc(=O)oc2c1 [R^S3A, μHLFR^SAAAμ] (H-[Ala(7-MeO-coumarin-4-yl)]HLF[X1]AA[Ala(7-MeO-coumarin-4-yl)]-OH) has a Ki (Cts L; [4]) of 520 ± 120 nM.

With μHLFR^SAμ the not cleaved (cathepsin L (Cts L) [2]) was “No cleavage”, the not cleaved (cathepsin K (Cts K)) was “No cleavage” and the not cleaved (cathepsin S (Cts S)) was “No cleavage”. The not cleaved (cathepsin V (Cts V)) was “No cleavage” and the not cleaved (cathepsin B (Cts B)) was “No cleavage”.

In the case of “μHLFK^SAAAμ (H-[Ala(7-MeO-coumarin-4-yl)]HLF[X2]AA[Ala(7-MeO-coumarin-4-yl)]-OH; SMILES COc1ccc2c(C[C@H](NC(=O)[C@H](C)NC(=O)[C@H](C)NC(=O)[C@H](C)NC(=S)[C@H](CCCCN)NC(=O)[C@H](Cc3ccccc3)NC(=O)[C@H](CC(C)C)NC(=O)[C@H](Cc3c[nH]cn3)NC(=O)[C@@H](N)Cc3cc(=O)oc4cc(OC)ccc34)C(=O)O)cc(=O)oc2c1)”, the cleaved bond (cathepsin L (Cts L) [2]) is reported as “A-A”, the not cleaved (cathepsin K (Cts K)) is reported as “No cleavage” and the not cleaved (cathepsin S (Cts S)) is reported as “No cleavage”. The not cleaved (cathepsin V (Cts V)) was “No cleavage” and the cleaved bond (cathepsin B (Cts B)) was “A-A”.

Work on COc1ccc2c(C[C@H](NC(=O)[C@H](C)NC(=O)[C@H](C)NC(=O)[C@H](C)NC(=S)[C@H](CCCCN)NC(=O)[C@H](Cc3ccccc3)NC(=O)[C@H](CC(C)C)NC(=O)[C@H](Cc3c[nH]cn3)NC(=O)[C@@H](N)Cc3cc(=O)oc4cc(OC)ccc34)C(=O)O)cc(=O)oc2c1 [K^S3A, μHLFK^SAAAμ] (H-[Ala(7-MeO-coumarin-4-yl)]HLF[X2]AA[Ala(7-MeO-coumarin-4-yl)]-OH) yielded a Ki (Cts L; [4]) of 600 ± 150 nM.

With “μHLFR^SAAAμ (H-[Ala(7-MeO-coumarin-4-yl)]HLF[X1]AA[Ala(7-MeO-coumarin-4-yl)]-OH; SMILES COc1ccc2c(C[C@H](NC(=O)[C@H](C)NC(=O)[C@H](C)NC(=O)[C@H](C)NC(=S)[C@H](CCCNC(=N)N)NC(=O)[C@H](Cc3ccccc3)NC(=O)[C@H](CC(C)C)NC(=O)[C@H](Cc3c[nH]cn3)NC(=O)[C@@H](N)Cc3cc(=O)oc4cc(OC)ccc34)C(=O)O)cc(=O)oc2c1)” the cleaved bond (cathepsin L (Cts L) [2]) was “A-A”, the not cleaved (cathepsin K (Cts K)) was “No cleavage” and the not cleaved (cathepsin S (Cts S)) was “No cleavage”. For the same compound, the not cleaved (cathepsin V (Cts V)) was “No cleavage” and the cleaved bond (cathepsin B (Cts B)) was “A-A”.

COc1ccc2c(C[C@H](NC(=O)[C@H](C)NC(=O)[C@H](CCCNC(=N)N)NC(=O)[C@H](Cc3ccccc3)NC(=O)[C@H](CC(C)C)NC(=O)[C@H](Cc3c[nH]cn3)NC(=O)[C@@H](N)Cc3cc(=O)oc4cc(OC)ccc34)C(=O)O)cc(=O)oc2c1 [R1A, μHLFRAμ] (H-[Ala(7-MeO-coumarin-4-yl)]HLFRA[Ala(7-MeO-coumarin-4-yl)]-OH) gave a half-life at 20 μM ([3]; 20 μM peptide, 0.05 mg/mL lysate, HPLC) of 7.2 min, a remaining at 5 min, 20 μM ([3]; HepG2 lysate, 5 mins, read-out: % intact peptide) of 46% and a remaining at 10 min, 20 μM ([3]; HepG2 lysate, 10 mins, read-out: % intact peptide) of 36%. The remaining at 0.25 h, 20 μM ([3]; HepG2 lysate, 15 mins, read-out: % intact peptide) was 32.8%, the remaining at 20 min, 20 μM ([3]; HepG2 lysate, 20 mins, read-out: % intact peptide) was 21.7% and the remaining at 0.5 h, 20 μM ([3]; HepG2 lysate, 30 mins, read-out: % intact peptide) was 6.92%.

In the case of “μHLFKAAAμ (H-[Ala(7-MeO-coumarin-4-yl)]HLFKAAA[Ala(7-MeO-coumarin-4-yl)]-OH; SMILES COc1ccc2c(C[C@H](NC(=O)[C@H](C)NC(=O)[C@H](C)NC(=O)[C@H](C)NC(=O)[C@H](CCCCN)NC(=O)[C@H](Cc3ccccc3)NC(=O)[C@H](CC(C)C)NC(=O)[C@H](Cc3c[nH]cn3)NC(=O)[C@@H](N)Cc3cc(=O)oc4cc(OC)ccc34)C(=O)O)cc(=O)oc2c1)”, the cleaved bond (cathepsin S (Cts S)) is reported as “K-A” and the cleaved bond (cathepsin B (Cts B)) is reported as “K-A”.

COc1ccc2c(C[C@H](NC(=O)[C@H](C)NC(=O)[C@H](C)NC(=O)[C@H](C)NC(=O)[C@H](CCCNC(=N)N)NC(=O)[C@H](Cc3ccccc3)NC(=O)[C@H](CC(C)C)NC(=O)[C@H](Cc3c[nH]cn3)NC(=O)[C@@H](N)Cc3cc(=O)oc4cc(OC)ccc34)C(=O)O)cc(=O)oc2c1 [R3A, μHLFRAAAμ] (H-[Ala(7-MeO-coumarin-4-yl)]HLFRAAA[Ala(7-MeO-coumarin-4-yl)]-OH) showed a Ki (Cts L; [4]) of 1680 ± 490 nM.

COc1ccc2c(C[C@H](NC(=O)[C@H](C)NC(=O)[C@H](C)NC(=O)[C@H](C)NC(=O)[C@H](CCCCN)NC(=O)[C@H](Cc3ccccc3)NC(=O)[C@H](CC(C)C)NC(=O)[C@H](Cc3c[nH]cn3)NC(=O)[C@@H](N)Cc3cc(=O)oc4cc(OC)ccc34)C(=O)O)cc(=O)oc2c1 [K3A, μHLFKAAAμ] (H-[Ala(7-MeO-coumarin-4-yl)]HLFKAAA[Ala(7-MeO-coumarin-4-yl)]-OH) gave a Ki (Cts L; [4]) of 3050 ± 640 nM.

With COc1ccc2c(C[C@H](NC(=O)[C@H](C)NC(=S)[C@H](CCCNC(=N)N)NC(=O)[C@H](Cc3ccccc3)NC(=O)[C@H](CC(C)C)NC(=O)[C@H](Cc3c[nH]cn3)NC(=O)[C@@H](N)Cc3cc(=O)oc4cc(OC)ccc34)C(=O)O)cc(=O)oc2c1 [R^S1A, μHLFR^SAμ] (H-[Ala(7-MeO-coumarin-4-yl)]HLF[X1][Ala(7-MeO-coumarin-4-yl)]-OH) the remaining at 2 h, 20 μM ([3]; HepG2 lysate, 2 hours, read-out: % intact peptide) was 86.3%, the remaining at 6 h, 20 μM ([3]; HepG2 lysate, 6 hours, read-out: % intact peptide) was 75.7% and the remaining at 8 h, 20 μM ([3]; HepG2 lysate, 8 hours, read-out: % intact peptide) was 80.7%. For the same compound, the remaining at 10 h, 20 μM ([3]; HepG2 lysate, 10 hours, read-out: % intact peptide) was 79.9% and the remaining at 24 h, 20 μM ([3]; HepG2 lysate, 24 hours, read-out: % intact peptide) was 61.3%.
